Test results as given in ChEMBL document CHEMBL1149188, “Synthesis of 2,4-diamino-6-[2'-O-(omega-carboxyalkyl)oxydibenz[b,f]azepin-5-yl]methylpteridines as potent and selective inhibitors of Pneumocystis carinii, Toxoplasma gondii, and Mycobacterium avium dihydrofolate reductase” (J Med Chem, 2004).
Each block holds one compound with its values, some of them ahead of it.

Tests used:
Dihydrofolate reductase [1] = molecular target: T1, Dihydrofolate reductase (Homo sapiens, UniProt P00374); test: Concentration required to inhibit the human Dihydrofolate reductase by 50% was determined (reported by Hoffman-LaRoche group)
T1 sequence (P00374 whole entry): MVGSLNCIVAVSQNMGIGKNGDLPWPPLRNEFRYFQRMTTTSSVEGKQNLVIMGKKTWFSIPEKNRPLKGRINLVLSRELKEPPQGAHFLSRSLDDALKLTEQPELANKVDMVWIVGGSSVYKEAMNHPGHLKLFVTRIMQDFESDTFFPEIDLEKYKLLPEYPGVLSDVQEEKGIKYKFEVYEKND

[2] = Selectivity index was determined by the ratio for IC50 of rat liver DHFR to the IC50 of Toxoplasma gondii DHFR
Dihydrofolate reductase [3] = molecular target: T2, Dihydrofolate reductase (Mycobacterium avium, UniProt O30463); test: Concentration required to inhibit the Mycobacterium avium Dihydrofolate reductase by 50% was determined
T2 sequence (O30463 whole entry): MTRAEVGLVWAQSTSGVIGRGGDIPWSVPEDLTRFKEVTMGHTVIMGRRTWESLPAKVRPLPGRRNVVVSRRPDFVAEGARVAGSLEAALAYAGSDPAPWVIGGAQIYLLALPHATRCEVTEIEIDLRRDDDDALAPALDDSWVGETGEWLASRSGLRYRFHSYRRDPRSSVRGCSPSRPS

[4] = molecular target: T3, Bifunctional dihydrofolate reductase-thymidylate synthase (Toxoplasma gondii, UniProt Q07422); test: Concentration required to inhibit the Toxoplasma gondii Dihydrofolate reductase by 50% was determined (reported by Hoffman-LaRoche group)
T3 sequence (Q07422 whole entry): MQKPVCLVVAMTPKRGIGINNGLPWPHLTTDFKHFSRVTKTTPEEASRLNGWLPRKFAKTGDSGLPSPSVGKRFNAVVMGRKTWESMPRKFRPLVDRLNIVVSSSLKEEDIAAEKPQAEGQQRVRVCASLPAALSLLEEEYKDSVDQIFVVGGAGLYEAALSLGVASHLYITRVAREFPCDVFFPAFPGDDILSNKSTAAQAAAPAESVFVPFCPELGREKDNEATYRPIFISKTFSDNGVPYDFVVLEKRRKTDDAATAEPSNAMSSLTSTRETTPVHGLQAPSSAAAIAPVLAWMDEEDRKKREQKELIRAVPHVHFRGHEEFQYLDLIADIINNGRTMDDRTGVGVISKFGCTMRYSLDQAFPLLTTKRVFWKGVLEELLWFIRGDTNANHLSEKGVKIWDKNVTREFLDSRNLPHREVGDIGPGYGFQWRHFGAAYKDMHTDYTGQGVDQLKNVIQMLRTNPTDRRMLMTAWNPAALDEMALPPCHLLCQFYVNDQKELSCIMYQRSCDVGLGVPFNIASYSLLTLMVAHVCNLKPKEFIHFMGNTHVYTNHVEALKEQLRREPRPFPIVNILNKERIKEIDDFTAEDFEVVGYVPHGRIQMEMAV

Dihydrofolate reductase [5] = molecular target: T1, Dihydrofolate reductase; test: Concentration required to inhibit the human Dihydrofolate reductase by 50% was determined
Dihydrofolate reductase [6] = molecular target: T2, Dihydrofolate reductase; test: Concentration required to inhibit the Mycobacterium avium Dihydrofolate reductase by 50% was determined; Range: 1.2-1.4
[7] = Selectivity index was determined by the ratio for IC50 of rat liver DHFR to the IC50 of Pneumocystis carinii DHFR; Range: 11-16
Dihydrofolate reductase [8] = molecular target: T4, Dihydrofolate reductase (Rattus norvegicus, UniProt Q920D2); test: Concentration required to inhibit the rat liver Dihydrofolate reductase by 50% was determined; Range: 370-440
T4 sequence (Q920D2 whole entry): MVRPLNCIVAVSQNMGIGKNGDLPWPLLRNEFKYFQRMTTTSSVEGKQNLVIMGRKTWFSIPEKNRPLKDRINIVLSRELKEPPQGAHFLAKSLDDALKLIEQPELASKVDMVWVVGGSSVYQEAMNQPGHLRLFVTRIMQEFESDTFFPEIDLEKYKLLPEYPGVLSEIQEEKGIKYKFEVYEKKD

[9] = Selectivity index was determined by the ratio for IC50 of rat liver DHFR to the IC50 of Mycobacterium avium DHFR; Range: 260-370
Dihydrofolate reductase [10] = molecular target: T5, Dihydrofolate reductase (Pneumocystis carinii, UniProt P16184)
T5 sequence (P16184 whole entry): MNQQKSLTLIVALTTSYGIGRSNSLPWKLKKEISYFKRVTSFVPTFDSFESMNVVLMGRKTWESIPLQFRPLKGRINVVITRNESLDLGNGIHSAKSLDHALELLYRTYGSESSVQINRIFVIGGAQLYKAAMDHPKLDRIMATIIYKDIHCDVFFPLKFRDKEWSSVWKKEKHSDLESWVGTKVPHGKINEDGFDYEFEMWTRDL

[11] = molecular target: T3, Bifunctional dihydrofolate reductase-thymidylate synthase; test: Concentration required to inhibit the Toxoplasma gondii Dihydrofolate reductase by 50% was determined; Range: 23-30
[12] = Selectivity index was determined by the ratio for IC50 of rat liver DHFR to the IC50 of Toxoplasma gondii DHFR; Range: 12-19
[13] = molecular target: T3, Bifunctional dihydrofolate reductase-thymidylate synthase
Description: Concentration required to inhibit the Toxoplasma gondii Dihydrofolate reductase by 50% was determined; Range: 8.9-11

Dihydrofolate reductase [14] = molecular target: T5, Dihydrofolate reductase; remark: listed apart in the source
Description: Concentration required to inhibit the Pneumocystis carinii Dihydrofolate reductase by 50% was determined; Range: 0.92-1.3

Dihydrofolate reductase [15] = molecular target: T2, Dihydrofolate reductase
Dihydrofolate reductase [16] = molecular target: T4, Dihydrofolate reductase
Dihydrofolate reductase [17] = molecular target: T2, Dihydrofolate reductase; remark: listed apart in the source
[18] = molecular target: T3, Bifunctional dihydrofolate reductase-thymidylate synthase; remark: listed apart in the source
Dihydrofolate reductase [19] = molecular target: T4, Dihydrofolate reductase; remark: listed apart in the source
Dihydrofolate reductase [20] = molecular target: T5, Dihydrofolate reductase; remark: listed apart in the source
Description: Concentration required to inhibit the Pneumocystis carinii Dihydrofolate reductase by 50% was determined; Range: 0.88-1.2

[21] = Selectivity index was determined by the ratio for IC50 of rat liver DHFR to the IC50 of Pneumocystis carinii DHFR; Range: 10-17
[22] = molecular target: T3, Bifunctional dihydrofolate reductase-thymidylate synthase; remark: listed apart in the source
Description: Concentration required to inhibit the Toxoplasma gondii Dihydrofolate reductase by 50% was determined; Range: 12-24

Dihydrofolate reductase [23] = molecular target: T4, Dihydrofolate reductase; test: Concentration required to inhibit the rat liver Dihydrofolate reductase by 50% was determined; Range: 250-300
[24] = Selectivity index was determined by the ratio for IC50 of rat liver DHFR to the IC50 of Toxoplasma gondii DHFR; Range: 10-25
[25] = Selectivity index was determined by the ratio for IC50 of rat liver DHFR to the IC50 of Mycobacterium avium DHFR; Range: 23-48
Dihydrofolate reductase [26] = molecular target: T5, Dihydrofolate reductase; test: Concentration required to inhibit the Pneumocystis carinii Dihydrofolate reductase by 50% was determined; Range: 18-25
Dihydrofolate reductase [27] = molecular target: T2, Dihydrofolate reductase; remark: listed apart in the source
Description: Concentration required to inhibit the Mycobacterium avium Dihydrofolate reductase by 50% was determined; Range: 6.2-11

[28] = Selectivity index was determined by the ratio for IC50 of rat liver DHFR to the IC50 of Mycobacterium avium DHFR
Dihydrofolate reductase [29] = molecular target: T2, Dihydrofolate reductase; test: Concentration required to inhibit the Mycobacterium avium Dihydrofolate reductase by 50% was determined; Range: 3.6-4.4
[30] = Selectivity index was determined by the ratio for IC50 of rat liver DHFR to the IC50 of Toxoplasma gondii DHFR; Range: 37-48
[31] = Selectivity index was determined by the ratio for IC50 of rat liver DHFR to the IC50 of Pneumocystis carinii DHFR; Range: 12-63
Dihydrofolate reductase [32] = molecular target: T4, Dihydrofolate reductase; test: Concentration required to inhibit the rat liver Dihydrofolate reductase by 50% was determined; Range: 1100-1200
[33] = Selectivity index was determined by the ratio for IC50 of rat liver DHFR to the IC50 of Mycobacterium avium DHFR; Range: 250-330
Dihydrofolate reductase [34] = molecular target: T5, Dihydrofolate reductase; test: Concentration required to inhibit the Pneumocystis carinii Dihydrofolate reductase by 50% was determined; Range: 19-29
[35] = molecular target: T3, Bifunctional dihydrofolate reductase-thymidylate synthase; test: Concentration required to inhibit the Toxoplasma gondii Dihydrofolate reductase by 50% was determined; Range: 25-30
[36] = Selectivity index was determined by the ratio for IC50 of human DHFR to the IC50 of Mycobacterium avium DHFR
[37] = molecular target: T3, Bifunctional dihydrofolate reductase-thymidylate synthase; test: Concentration required to inhibit the Toxoplasma gondii Dihydrofolate reductase by 50% was determined
Dihydrofolate reductase [38] = molecular target: T4, Dihydrofolate reductase; test: Concentration required to inhibit the rat liver Dihydrofolate reductase by 50% was determined
[39] = Selectivity index was determined by the ratio for IC50 of rat liver DHFR to the IC50 of Mycobacterium avium DHFR; Range: 140-230
Dihydrofolate reductase [40] = molecular target: T5, Dihydrofolate reductase; test: Concentration required to inhibit the Pneumocystis carinii Dihydrofolate reductase by 50% was determined; Range: 9.8-12
[41] = Selectivity index was determined by the ratio for IC50 of rat liver DHFR to the IC50 of Pneumocystis carinii DHFR; Range: 80-150
Dihydrofolate reductase [42] = molecular target: T4, Dihydrofolate reductase; test: Concentration required to inhibit the rat liver Dihydrofolate reductase by 50% was determined; Range: 1100-1500
[43] = molecular target: T3, Bifunctional dihydrofolate reductase-thymidylate synthase; test: Concentration required to inhibit the Toxoplasma gondii Dihydrofolate reductase by 50% was determined; Range: 20-23
[44] = Selectivity index was determined by the ratio for IC50 of rat liver DHFR to the IC50 of Toxoplasma gondii DHFR; Range: 55-65
Dihydrofolate reductase [45] = molecular target: T2, Dihydrofolate reductase; test: Concentration required to inhibit the Mycobacterium avium Dihydrofolate reductase by 50% was determined; Range: 6.5-8.0
[46] = Selectivity index was determined by the ratio for IC50 of rat liver DHFR to the IC50 of Toxoplasma gondii DHFR; Range: 53-113
[47] = molecular target: T3, Bifunctional dihydrofolate reductase-thymidylate synthase; test: Concentration required to inhibit the Toxoplasma gondii Dihydrofolate reductase by 50% was determined; […]
Dihydrofolate reductase [48] = molecular target: T5, Dihydrofolate reductase; test: Concentration required to inhibit the Pneumocystis carinii Dihydrofolate reductase by 50% was determined; Range: 58-110
Dihydrofolate reductase [49] = molecular target: T4, Dihydrofolate reductase; test: Concentration required to inhibit the rat liver Dihydrofolate reductase by 50% was determined; […]
[50] = Selectivity index was determined by the ratio for IC50 of rat liver DHFR to the IC50 of Mycobacterium avium DHFR; […]

Compound: CCOc1cc(Cc2cnc(N)nc2N)cc(OCC)c1-n1cccc1 [EPIROPRIM]
- IC50 (Dihydrofolate reductase [1]): 600000 nM
- SI [2]: 670
- IC50 (Dihydrofolate reductase [3]): 4.1 nM
- IC50 [4]: 900 nM
- IC50 (Dihydrofolate reductase [5]): 600000 nM

Compound: Nc1nc(N)c2nc(CN3c4ccccc4C=Cc4cc(O)ccc43)cnc2n1
- IC50 (Dihydrofolate reductase [6]): 1.3 nM
- SI [7]: 13
- IC50 (Dihydrofolate reductase [8]): 410 nM
- SI [9]: 320
- IC50 (Dihydrofolate reductase [10]): 31 nM
- IC50 [11]: 26 nM
- SI [12]: 16

Compound: Nc1nc(N)c2nc(CN3c4ccccc4C=Cc4cc(OCCCC(=O)O)ccc43)cnc2n1
- IC50 [13]: 9.9 nM
- IC50 (Dihydrofolate reductase [14]): 1.1 nM
- IC50 (Dihydrofolate reductase [15]): 2 nM
- IC50 (Dihydrofolate reductase [16]): 1500 nM

Compound: Nc1nc(N)c2nc(CN3c4ccccc4C=Cc4cc(OCc5ccc(C(=O)O)cc5)ccc43)cnc2n1
- IC50 (Dihydrofolate reductase [17]): 0.75 nM
- IC50 [18]: 22 nM
- IC50 (Dihydrofolate reductase [19]): 580 nM
- IC50 (Dihydrofolate reductase [20]): 1 nM

Compound: Nc1nc(N)c2nc(CN3c4ccccc4C=Cc4cc(OCC(=O)O)ccc43)cnc2n1
- SI [21]: 13
- IC50 [22]: 17 nM
- IC50 (Dihydrofolate reductase [23]): 280 nM
- SI [24]: 16
- SI [25]: 34
- IC50 (Dihydrofolate reductase [26]): 21 nM
- IC50 (Dihydrofolate reductase [27]): 8.2 nM

Compound: CCc1nc(N)nc(N)c1-c1ccc(Cl)c(/N=N/N(CCOC(C)=O)Cc2ccccc2)c1
- IC50 (Dihydrofolate reductase [3]): < 1 nM
- SI [28]: > 1000

Compound: Nc1nc(N)c2nc(CN3c4ccccc4C=Cc4cc(OCCC(=O)O)ccc43)cnc2n1
- IC50 (Dihydrofolate reductase [29]): 4 nM
- SI [30]: 39
- SI [31]: 46
- IC50 (Dihydrofolate reductase [32]): 1100 nM
- SI [33]: 280
- IC50 (Dihydrofolate reductase [34]): 24 nM
- IC50 [35]: 28 nM

Compound: CCCOc1cc(NCc2cnc3nc(N)nc(N)c3c2C)cc(OCCC)c1
- IC50 (Dihydrofolate reductase [3]): 0.19 nM
- SI [36]: 7300

- IC50 (Dihydrofolate reductase [38]): 250000 nM
Compound: Nc1nc(N)c2nc(CSc3ccc(Sc4ccccc4)cc3)cnc2n1
- IC50 [37]: 770 nM
- SI [2]: 320

Compound: COc1ccc(OC)c(CCc2cnc3nc(N)nc(N)c3c2C)c1
- SI [2]: 98

Compound: Nc1nc(N)c2nc(CN3c4ccccc4C=Cc4cc(OCCCCC(=O)O)ccc43)cnc2n1
- SI [39]: 180
- IC50 (Dihydrofolate reductase [40]): 11 nM
- SI [41]: 120
- IC50 (Dihydrofolate reductase [42]): 1300 nM
- IC50 [43]: 21 nM
- SI [44]: 62
- IC50 (Dihydrofolate reductase [45]): 7.2 nM

Compound: Nc1nc(N)c2nc(CN3c4ccccc4C=Cc4ccccc43)cnc2n1
- SI [46]: 77
- IC50 [47]: 39 nM
- IC50 (Dihydrofolate reductase [48]): 79 nM
- IC50 (Dihydrofolate reductase [49]): 3000 nM
- SI [50]: 250
